Target: T1, Ano4 (Mus musculus, UniProt Q8C5H1)
T1 construct: full length, 955 residues, C-terminal Myc tag (pcDNA3), transiently expressed in HEK293 cells
T1 sequence (Q8C5H1 1-955): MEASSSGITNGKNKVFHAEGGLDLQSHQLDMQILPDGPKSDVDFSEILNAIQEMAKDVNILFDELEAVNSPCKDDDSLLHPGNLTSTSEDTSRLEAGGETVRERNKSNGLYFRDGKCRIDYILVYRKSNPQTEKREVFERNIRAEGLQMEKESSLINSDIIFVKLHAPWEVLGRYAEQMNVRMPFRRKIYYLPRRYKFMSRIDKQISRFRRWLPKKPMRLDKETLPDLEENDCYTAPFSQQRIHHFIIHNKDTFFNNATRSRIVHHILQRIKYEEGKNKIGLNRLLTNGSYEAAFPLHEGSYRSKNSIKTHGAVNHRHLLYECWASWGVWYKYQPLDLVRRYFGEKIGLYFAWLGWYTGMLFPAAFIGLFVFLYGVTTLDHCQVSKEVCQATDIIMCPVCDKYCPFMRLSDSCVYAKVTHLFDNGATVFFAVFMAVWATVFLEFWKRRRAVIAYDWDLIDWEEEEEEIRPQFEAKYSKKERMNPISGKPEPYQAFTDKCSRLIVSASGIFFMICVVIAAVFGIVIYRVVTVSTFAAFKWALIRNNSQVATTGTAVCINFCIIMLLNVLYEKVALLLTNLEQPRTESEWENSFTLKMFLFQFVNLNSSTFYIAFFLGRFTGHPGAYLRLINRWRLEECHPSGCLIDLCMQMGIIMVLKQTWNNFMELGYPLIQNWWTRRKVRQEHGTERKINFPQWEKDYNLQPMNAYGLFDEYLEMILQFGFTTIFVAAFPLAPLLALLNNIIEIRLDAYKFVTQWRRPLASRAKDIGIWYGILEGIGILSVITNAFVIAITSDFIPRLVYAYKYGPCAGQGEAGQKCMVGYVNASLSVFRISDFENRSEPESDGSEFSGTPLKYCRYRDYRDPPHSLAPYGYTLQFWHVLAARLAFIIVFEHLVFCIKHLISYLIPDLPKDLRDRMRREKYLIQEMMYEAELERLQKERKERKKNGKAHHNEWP
Assay: whole-cell patch clamp, block of ionomycin-activated current
Assay type: cell-based
Settings: 100 uM niflumic acid; extracellular Ringer with 1 uM ionomycin, pH 7.2, room temperature; channel blocker

O=C(O)c1cccnc1Nc1cccc(C(F)(F)F)c1 [niflumic acid]
whole-cell patch clamp, block of ionomycin-activated current: The Ano4-dependent current was blocked by the application of the fenamate niflumic acid

From article PMC6381168, “Anoctamin-4 is a bona fide Ca^2+-dependent non-selective cation channel” (Scientific Reports, 2019)
